Several values for one entry are separate records, joined by “and”; a condition that tells them apart may be missing. Identical values can stand only once.
Assays:
B16 melanoma cells = assay: B16 melanoma cell melanin assay (melanogenesis inhibiting ability); assay type: cell-based; settings: 100 ppm sample, 200 nM a-MSH; for extracellular OD475 / extracellular melanin / extracellular melanin, % of control / melanin/protein: replicates 1-3
Protocol: Skin-whitening effect was evaluated as described below. B16 melanoma cells were seeded onto a 12-well plate at a density of 1.5×10^5 cells per well. DMEM (Dulbeco's modified Eagle's medium) supplemented with 10% fetal bovine serum was used and the cells were cultured for 24 hours (10% CO2, 37° C.). The 12-well plate onto which the B16 melanoma cells were seeded was treated with 200 nM melanocyte-stimulating hormone (MSH) and then the 12-well plate was treated with each sample (25, 50, 100 and 200 ppm). The test groups were: a group treated with sonicated identified strain (LBS sonication), a group treated with heat-killed identified strain (LBS heat), and a group treated with cultural filtrate of the identified strain (culture). […] The cells treated with nothing were used as a negative control group and those treated only with MSH was used as a vehicle group. After the treatment, the cell culture (extracellular melanin) was transferred to a 96-well plate and absorbance was measured at 475 nm. […] The calculated melanin content was normalized to the total protein content for each group and the melanogenesis inhibiting ability was evaluated by comparing with the control groups. The experiment was repeated 3 times.

DPPH assay = assay type: biochemical; settings: at 100 μM; 1 mL 0.2 mM DPPH, 30 minutes
Protocol: L-Ascorbic acid (Sigma Aldrich) was used as a positive control. […] MRS broth not treated with a strain was used as a negative control. After the reaction, OD515 was measured using a spectrophotometer and DPPH radical scavenging activity was calculated according to the following equation. DPPH radical scavenging activity (%)=[(Absorbance of control to which sample was not added)−(Absorbance of group to which sample was added)]/(Absorbance of control to which sample was not added) […] The experiment was conducted 3 times and the average value was obtained.

SMILES | extracellular melanin, % of control (average of 3) (B16 melanoma cells) | extracellular OD475 (B16 melanoma cells) | extracellular melanin (B16 melanoma cells) | extracellular melanin, % of control (B16 melanoma cells) | melanin/protein (B16 melanoma cells) | DPPH radical scavenging activity (DPPH assay)
OC[C@H]1O[C@@H](Oc2ccc(O)cc2)[C@H](O)[C@@H](O)[C@@H]1O [arbutin] | 111.1 % of control | 0.281 and 0.252 and 0.274 | 138.50 ppm and 124.00 ppm and 135.00 ppm | 116.8 % of control and 106.1 % of control and 110.5 % of control | 214.2 µg/mg and 194.5 µg/mg and 202.6 µg/mg | –
O=c1cc(CO)occ1O [kojic acid] | 67.3 % of control | 0.163 | 68.00 ppm and 70.00 ppm and 79.50 ppm | 65.1 % of control and 65.3 % of control and 71.5 % of control | 119.4 µg/mg and 119.7 µg/mg and 131.2 µg/mg | –
O=C1O[C@H]([C@@H](O)CO)C(O)=C1O [L-ascorbic acid] | – | – | – | – | – | about 7%

From US10251919B2, “Method for improving skin condition or anti-microorganisms or anti-oxidation using Lactobacillus sakei MD honeysuckle” (AMOREPACIFIC CORPORATION, priority 2015, dated 2019)
